One data set relates to liver. Conditions: mice, cited from earlier work.
A further data set concerns B6 splenocytes. The data set is described as follows: In vitro stimulation of splenocytes: [3H] thymidine incorporation (proliferation). It counts as cell-based, mouse. Conditions: 72-h cultures, graded amounts. On the procedure:
(§1) Splenocytes were prepared as described above and plated at 2.0×10^5 cells per well in 96-well plates in RPMI-1640 supplemented with 5% FCS, […] 2-mercaptoethanol, 2 mM glutamine, 1% sodium pyruvate, and antibiotics. Titrated volumes of GC, α-GalCer, and ALIB-97 diluted in DMSO were added at final concentrations of 100 ng, 1 μg, and 10 μg/ml. After 72 h of culture, 1 μCi of [^3H] thymidine (Amersham Biosciences) was added to each well, and the cells were cultured for an additional 16 to 18 h. Cells were harvested with a cell harvester (Tomtec, Orange, Conn.), and the uptake of radioactivity was measured with a β-plate reader. To evaluate IFN-γ secretion in vitro, supernatants were harvested after 90 h of culture with glycolipids and stored until the cytokine levels were measured by ELISA.

In data set [1] the test system is ob/ob mice. The data set is described as follows: Serum ALT and AST (hepatic injury) in ob/ob mice. The settings on record: day 30, 45 μg per os daily, vehicle group A 710. It counts as in vivo. On the procedure:
The effect of β-glycolipids on liver injury was evaluated by serum aspartyl transaminase (AST) and alanine aminotransferase (ALT) activities, which were determined by a clinical chemistry analyzer, Reflovet Plus (Roche Diagnostics, GmbH, Mannheim, Germany).
(§2) Therefore, five groups of male C57BL/6 Ob/Ob mice were studied. Mice (6 per group) were fed (per os) daily for 4 weeks with 15 or 45 μg of GC (groups B and C, respectively) and 15 or 45 μg of ALIB-97 (groups D and E, respectively). Control mice (Group A) were administered vehicle only.

In another data set the test system is AKT. Put plainly: Western blot of liver extracts of ob/ob mice: AKT activation. It counts as in vivo. Conditions: per os daily 4 weeks, 45 μg (group C). On the procedure: (§3) For analysis of whole tissue lysates, snap-frozen liver pieces were homogenized in 0.75 ml of ice-cold PBS and centrifuged at 4° C. for 5 min in 2000 rpm. Pellets were lysed with 50 mM beta glycerophosphate, 1.5 mM EGTA, PH 7.3, 1 mM EDTA, PH 7.3, 1 mM DTT, 0.1 mM Sodium vanadate, 1% NP-40, and cocktails of protease and phosphatase (Sigma, Rehovot, Israel).
(§4) Lysates were centrifuged twice at 4° C. for 10 minutes in 14000 rpm. Equivalent amounts of lysates (15 μg/lane), determined by Bradford assay (Bio-Rad, Rehovot, Israel), were separated by sodium dodecyl sulfate polyacrylamide gel electrophoresis (SDS-PAGE) and transferred to nitrocellulose membranes.
(§5) For metabolic syndrome experiments, proteins were detected with JNK-2, Phospho JNK (Thr183/Tyr185), Akt and phospho Akt (Ser 473) antibodies (Cell Signaling Technologies, MA). β-actin (abcam, UK) was used as the loading control.
(§6) Blots were developed with horseradish peroxidase-conjugated secondary antibodies (Jackson Laboratories Bar Harbor, Me.) and Western Blot-Luminol Reagent (Santa Cruz Biotechnology, CA, USA). Cell counting and western Blot quantification was performed using total Lab (Phoretix, USA) software.
(§7) Therefore, five groups of male C57BL/6 Ob/Ob mice were studied. […]

For data set [2], the system named is ob/ob mice. The data set is described as follows: Fasting glucose and glucose tolerance test in ob/ob mice. It counts as in vivo. Here is the method:
Mice underwent a glucose tolerance test (GTT) on day 30 after overnight fasting. Glucose was administered orally (1.25 g per kg). Serum glucose measurements were performed on tail-vein blood every 15 min for 3 h. Glucose levels were measured by a standard glucometer.
as §2

A further data set relates to mouse splenocytes. Put plainly: In vitro stimulation of splenocytes: supernatant IFN-γ by ELISA. Type of data set: cell-based. The settings on record: CD1d−/− splenocytes. Here is the method: as §1
A further data set deals with JNK2. The data set is described as follows: Western blot of liver extracts of ob/ob mice: JNK2 activation. Type of data set: in vivo. Conditions: per os daily 4 weeks, 45 μg (group C). On the procedure:
as §3, §4, §5, §6, §7

The conditions of data set [3]: humans, preliminary data; cited from earlier work.
The subject of a further data set is fat-associated T cells. The data set is described as follows: Flow cytometry of T cell subsets in adipose tissue, stromal vascular cells and spleen of ob/ob mice. The settings on record: 15 and 45 μg per os daily 4 weeks. It counts as in vivo. Here is the method: Splenocytes and intrahepatic lymphocytes were isolated as follows: livers and spleens were kept in RPMI-1640+FCS. Then spleens were crushed through a 70 μm nylon cell strainer (Falcon) and centrifuged (1250 rpm for 7 min) for the removal of cell debris. Red blood cells were lysed with 1 ml of cold 155 mM ammonium chloride lysis buffer and centrifuged (1250 rpm for 3 min). Splenocytes were resuspended with 1 ml RPMI+FCS. Cell viability by trypan blue staining was above 90%. For intrahepatic lymphocytes, livers were crushed through a stainless mesh (size 60, Sigma) and the cell suspension was placed in a 50-ml tube for 5 min. Lymphoprep (10 ml, Ficoll, Axis-Shield PoC AS, Oslo, Norway) was placed under similar volume of cell suspension in 50-ml tubes. Tubes were centrifuged at 1800 rpm for 18 min. Cells in the interface were collected and centrifuged at 1800 rpm for 10 min, to obtain a pellet of cells depleted of hepatocytes to a final volume of 250 μl. Approximately 1×10^6 cells/mouse liver, were recovered.
Adipose tissue (visceral fat pads) was minced and incubated in Krebs-Ringer bicarbonate buffer (3 mL/g adipose tissue) containing 10mM glucose and 2.5% bovine serum albumin, incubated with 840 U/g collagenase type I (Sigma, Rehovot, Israel)) at 37° C. for 1 hour. Cells were filtered twice through chiffon mesh (100 μm) and centrifuged 50 g for 5 min. Floating adipocytes were separated from pelleted S/V fraction. The infranatant fraction was removed and centrifuged at 200 g for five minutes to pellet the S/V cells.
For metabolic syndrome experiments, the following antibodies were used for flow cytometry: anti-CD4-Pacific Blue, anti-CD8-FITC, anti-IL-17-PE, anti CD25-PercP-Cy5.5 and anti FOX3p PE-Cy725 (all from eBioscience, San Diego, Calif.). Surface staining was performed by incubating cells with antibodies and anti-CD16/32 (blocks Fc, eBioscience) at 4° C. in FACS buffer containing PBS and 0.5% BSA, for 30 min. Cells were washed twice with FACS buffer, resuspended in FACS buffer, and analyzed by flow cytometry. Appropriate isotype controls were used in all experiments. Intracellular staining was performed using Foxp3 staining buffer kit (eBioscience, San Diego, Calif.). Cells were incubated with 1 ml Fixation/Permeabilization solution for 50 min, washed twice with Permeabilization buffer and incubated with anti-Foxp3 Ab for 50 min. Cells were then washed twice with Permeabilization buffer and resuspended with FACS buffer. Analysis was performed using a FACSCalibur instrument (Becton Dickinson, San Jose, Calif.) with FCS express V.3 software (DeNovo software, Los Angeles, Calif.).
as §2

The source of these data is patent publication US8592394B2, “Synthetic derivatives beta glycolipids and compositions thereof for the treatment of pathologic disorders” (Enzo Therapeutics, Inc., priority 2003, dated 2013).

For the compound `CCCCCCCCCCCCCCCCCCCCCCCCCC(=O)N[C@@H](CO[C@H]1O[C@H](CO)[C@H](O)[C@H](O)[C@H]1O)[C@H](O)[C@H](O)CCCCCCCCCCCCCC` [αGalCer, α-Galctosyl-ceramide], the hepatotoxicity entry with liver is “hepatotoxic”. Moreover, the “cell proliferation ([3H] thymidine incorporation)” value in the data set with B6 splenocytes was “induced”.
Turning to “β-glucosylceramide [GC, reference compound]”, the “serum AST” value with ob/ob mice [1] turned out to be 330 u/L. The liver injury entry in the data set with liver (oral administration) is given as “not associated with liver injury”. For the same compound, in the data set on AKT, the “increase of AKT activation” value amounted to 43%. Moreover, the “time at which the decrease in glucose levels (GTT, relative to time 0) reached statistical significance” value in the data set on ob/ob mice [2] (day 30, 15 μg per os daily) stood at 120 min. The “time at which the decrease in glucose levels (GTT, relative to time 0) reached statistical significance” value in the data set with ob/ob mice [2] (day 30, 45 μg per os daily) was determined as 120 min. In the data set on mouse splenocytes, the IFN-γ secretion entry is listed as “capable of activating”. Further, the “activation of JNK2” value in the data set with JNK2 stood at 60%. Further, the “safety and biological activity” value in data set [3] is “safe and biologically active”. In the data set with fat-associated T cells, the “CD4+IL17+ / CD4+CD25+ ratio in adipose tissue” value was “reversal”, the “CD4IL17/CD4CD25FOXP3 ratio in the SVC” value is recorded as “reduction”, the “CD4IL17/CD4CD25FOXP3 ratio in the spleen” value is “reduction” and the “CD4IL17/CD4CD25 ratio in the spleen” value is recorded as “reduction”. Moreover, in the data set with fat-associated T cells, the “ratio between CD4+IL17+ and CD4+CD25+FOXP3+ cells in adipose tissue” value is “dose dependent shift towards tolerance”.
